Assay results as given in US3966744A, “Spin labeled compounds” (priority 1974, dated 1976).
Where “and” joins values, the source holds several entries; their conditions need not be identical. Equal values may be shown once. Where a name gives a salt, the structure may show the parent alone. Read-outs that look alike come from different tables or passages of the source.

Key:
Amphetamine antibody = assay: Amphetamine spin immunoassay; format: binding, rabbit; conditions: for mobilization with urine of individuals who indicated taking cross reacting substances: six of 100 urines, background 10% or less
Method: Two plastic cups were employed. In one cup was 2.5 μl of 0.2 M sodium dichromate. In the other cup was 5.0 μl of antibody solution. The sample was transferred employing a 25 μl Oxford Sampler and introduced into the cup containing dichromate. The dichromate sample solution was agitated by means of the sample, drawn up with the sampler and introduced into the cup containing antibody, without touching the antibody. To the resulting solution was then added 5 μl of spin label, the sample was then stirred with an ESR capillary tube, the sample allowed to rise into the capillary and the spectrum read.

secobarbital antibody = assay: Secobarbital (seconal) spin immunoassay
phenobarbital antibody = assay: Phenobarbital spin immunoassay; conditions: 1 × 10^-5 M (2.2-2.6 μg/ml), pH 7, 10 µM
morphine antibodies = assay: Morphine spin immunoassay (ESR), specificity; conditions: spin label of Example 2.1
[1] = Storage stability of the cocaine assay spin label (binding constant); format: physicochemical; conditions: storage in distilled water, substantially metal ion free, carbon dioxide bubbled through
Method: The spin labeled compound employed was prepared according to Example 7.1.

antibody (cocaine assay) = format: binding, rabbit; conditions: read from graph
[2] = system: antibody (methadone assay); format: binding, rabbit; conditions: 3.4 μg/ml
Method: The spin immunoassay was carried out similarly to the prior assays. Two plastic cups were employed, one cup containing 5 μl of 0.2 molar sodium dichromate and the second 5 μl of borate buffered antibody at pH 8. […] To the dichromate is added 50 μl of sample and a 20 μl aliquot is transferred from the first cup to the second cup containing the antibody solution.
Fifty-five urine samples were tested according to the above procedure.

[3] = system: supported morphine antibodies; assay: Binding of free radical labeled morphine to supported morphine antibodies (ESR); parameters: species or system rabbit; conditions: pH 8 borate buffer, 10^-4 M label, 2 hours
morphine antibody = assay: Detection of morphine and its metabolite in urine by spin immunoassay (ESR); format: binding, rabbit
dinitrophenyl antibodies = assay: Spin immunoassay with labeled dinitrophenyl hapten and dinitrophenyl antibodies (ESR); format: binding; conditions: increasing amounts, 10^-5 M solution in water, maximum 14 μl
Method: (The antibodies were prepared according to Eisen, et al., JACS, 75, 4583 (1953) and the labeled hapten was prepared in accordance with Hsia, et al, Archives of Biochemistry and Biophysics 132, 466 (1969)). The following procedure was employed. The quantities of the two compounds were chosen by adding small portions of the haptens to the antibody solution until the ESR signal intensity began to rise sharply with addition of each portion. At this point, all the binding sites on the antibodies were occupied by the label and the addition was stopped. Increasing amounts of N-epsilon-dinitrophenyllysine were then added to the solution.
The labeled hapten was dissolved in 20 percent aq. methanol at about 1-2 × 10^-^5 M concentration. Approximately 10 μl of the antibody solution and 10-20 μl of the labeled hapten solution were combined and varying amounts of 10^-^5 M solution of N-epsilon-dinitrophenyllysine in water added, the maximum being 14 μl.
By using appropriate standards, the ESR signal intensity may be related to the concentration of the N-epsilon dinitrophenyllysine in solution. Therefore, by taking an unknown solution suspected of having such a hapten, and introducing a standardized amount of the antibody-hapten complex, one can rapidly determine the concentration of the N-epsilon dinitrophenyllysine in solution.

[4] = urine samples 6-10 of drug takers, percentage of maximum increase with high concentrations of morphine, drug taken

CC(N)C(O)c1ccccc1 (centres unmarked) [phenylpropanolamine.HCl]
% Mobilization (Amphetamine antibody; 2.5 μg/ml (0.8-2.1 × 10^-5 M)): 13%

CCCC(C)C1(CC)C(=O)NC(=O)NC1=O (centres unmarked) [pentobarbital]
minimum concentration that could be detected (secobarbital antibody): 2 µg/mL

CCC1(CC)C(=O)NC(=O)N(C)C1=O [metharbital]
% Mobilization (phenobarbital antibody): 6%

CCC1(c2ccccc2)CCC(=O)NC1=O (centres unmarked) [glutethimide]
% Mobilization (phenobarbital antibody): 0.5%

CCC1(c2ccccc2)C(=O)NC(=O)N(C)C1=O (centres unmarked) [mephobarbital]
% Mobilization (phenobarbital antibody): 32%

CN1CC[C@]23c4c5ccc(O[C@@H]6O[C@H](C(=O)O)[C@@H](O)[C@H](O)[C@H]6O)c4O[C@H]2[C@@H](O)C=C[C@H]3[C@H]1C5 [morphine-O^3 -glucuronide]
detection by the morphine assay (morphine antibodies): can also be detected

C=CCC1(C(C)CCC)C(=O)NC(=O)NC1=O (centres unmarked) [secobarbital]
% Mobilization (phenobarbital antibody): 7% | sensitivity of the assay (secobarbital antibody): the greatest sensitivity is achieved with secobarbital

CN[C@@H](C)[C@@H](O)c1ccccc1 [pseudophedrine]
mobilization with urine of individuals who indicated taking cross reacting substances (Amphetamine antibody): greater than 14%

COC(=O)[C@H]1[C@@H](OC(=O)c2ccc(NC(=O)C3CC(C)(C)N([O])C3(C)C)cc2)C[C@@H]2CC[C@H]1N2C (some centres unmarked) [Example 7.1]
binding constant on storage of the spin label [1]: the binding constant diminished with time unless the spin label was stored at pH 5 in the absence of any buffer

CCCC(C)C1(CC)C(=O)NC(=O)NC1=O (centres unmarked) [sodium pentobarbital]
% Mobilization (phenobarbital antibody): 10%

CCCC(C)C1(CC)C(=O)NC(=S)NC1=O (centres unmarked) [thiopental sodium]
minimum concentration that could be detected (secobarbital antibody): 3.5 µg/mL

CNC(C)(C)Cc1ccccc1 [mephentermine]
recognition by the amphetamine antibody (Amphetamine antibody): recognizes | % Mobilization (antibody (cocaine assay); 10 μg/ml): 35%

CN(C)CCCN1c2ccccc2Sc2ccc(Cl)cc21 [thorazine]
% Mobilization [2]: 9%

CC(N)Cc1ccccc1 (centres unmarked) [amphetamine]
recognition by the amphetamine antibody (Amphetamine antibody): recognizes | peak ratio (amphetamine/saline) (Amphetamine antibody; 10^-3 molar amphetamine, loading ratio 0.95): 5 | mobilization with urine of individuals who indicated taking cross reacting substances (Amphetamine antibody): greater than 14%

CCC1(c2ccccc2)C(=O)NC(=O)NC1=O [sodium phenobarbital]
minimum concentration that could be detected (secobarbital antibody): 40 µg/mL

C=CCN1CC[C@]23c4c5ccc(O)c4O[C@H]2[C@@H](O)C=C[C@H]3[C@H]1C5 [nalorphine]
detection by the morphine assay (morphine antibodies): can also be detected

CNC(C)(C)Cc1ccccc1 [mephentermine.H2 SO4]
% Mobilization (Amphetamine antibody; 2.5 μg/ml (0.8-2.1 × 10^-5 M)): 28%

CN1CC[C@]23c4c5ccc(OCC(=O)NC6CC(C)(C)N([O])C(C)(C)C6)c4O[C@H]2[C@@H](O)C=C[C@H]3[C@H]1C5 [Example 2.2, 4-[2'(O^3" Morphino)acetamido]-2,2,6,6-tetramethylpiperidino-1-oxyl]
binding of the free radical labeled morphine to the receptor (ESR signals) [3]: broad ESR signals indicating the binding of the free radical labeled morphine to the receptor

COc1ccc2c(c1)[C@]13CCCC[C@@H]1[C@H](C2)N(C)CC3 [dextromethorphan]
% Mobilization (antibody (cocaine assay); 10 μg/ml): 33%

CC(=O)Oc1ccc2c3c1O[C@H]1[C@@H](OC(C)=O)C=C[C@H]4[C@@H](C2)N(C)CC[C@@]341 [heroin]
% Signal Increase (morphine antibody; urine of single heroin user, day 2, drug taken on second and fifth days): 57% | % Signal Increase (morphine antibody; urine of single heroin user, day 3, drug taken on second and fifth days): 32% | % Signal Increase (morphine antibody; urine of single heroin user, day 4, drug taken on second and fifth days): 26% | % Signal Increase (morphine antibody; urine of single heroin user, day 5, drug taken on second and fifth days): 47% | % Signal Increase (morphine antibody; urine of single heroin user, day 6, drug taken on second and fifth days): 26% | % Signal Increase (morphine antibody; urine of single heroin user, day 7, drug taken on second and fifth days): 16% | % Signal Increase (morphine antibody; urine of single heroin user, day 8, drug taken on second and fifth days): 8% | % Signal Increase (morphine antibody; urine of single heroin user, day 9, drug taken on second and fifth days): 40% | % Signal Increase (morphine antibody; [4]): 81% and 100%

NC(CCCCNc1ccc([N+](=O)[O-])cc1[N+](=O)[O-])C(=O)O (centres unmarked) [N-epsilon-dinitrophenyllysine]
ESR signal on addition to antibodies-labeled hapten complex (dinitrophenyl antibodies): an increase in the ESR signal was observed

COc1ccc2c3c1O[C@H]1[C@@H](O)C=C[C@H]4[C@@H](C2)N(C)CC[C@@]341 [codeine]
% Signal Increase (morphine antibody; [4]): 75% and 62% | detection by the morphine assay (morphine antibodies): detected by the same procedure

CCC1(c2ccccc2)C(=O)NC(=O)NC1=O [phenobarbital]
% Mobilization (phenobarbital antibody): 25%

COc1cc(CCN)cc(OC)c1OC [mescaline]
mobilization with urine of individuals who indicated taking cross reacting substances (Amphetamine antibody): greater than 14%

CC(Cc1ccccc1)N(C)Cc1ccccc1 (centres unmarked) [benzophetamine.HCl]
% Mobilization (Amphetamine antibody; 2.5 μg/ml (0.8-2.1 × 10^-5 M)): 12%

CNC(C)CC1CCCCC1 (centres unmarked) [propylhexedrine.HCl]
% Mobilization (Amphetamine antibody; 250 μg/ml (131 × 10^-5 M)): 71%

CCC1(CCC(C)C)C(=O)NC(=O)NC1=O [amobarbital]
% Mobilization (phenobarbital antibody): 16% | minimum concentration that could be detected (secobarbital antibody): 2.5 µg/mL

CNC(C)Cc1ccccc1 (centres unmarked) [methamphetamine.HCl]
% Mobilization (Amphetamine antibody; 2.5 μg/ml (0.8-2.1 × 10^-5 M)): 29%

CN[C@@H](C)Cc1ccccc1 [methamphetamine]
recognition by the amphetamine antibody (Amphetamine antibody): recognizes

NCCc1ccccc1 [phenethylamine]
% Mobilization (Amphetamine antibody; 2.5 μg/ml (0.8-2.1 × 10^-5 M)): 26%

CCC(=O)C(CC(C)N(C)C)(c1ccccc1)c1ccccc1 (centres unmarked) [methadone]
detection by the morphine assay (morphine antibodies): insensitive

COC(=O)[C@H]1[C@@H](OC(=O)c2ccccc2)C[C@@H]2CC[C@H]1N2C [cocaine]
% Mobilization (antibody (cocaine assay); 1 μg/ml): 49% | % Mobilization (antibody (cocaine assay); 10 μg/ml): 80%

CC(N)Cc1ccccc1 (centres unmarked) [amphetamine.HCl]
% Mobilization (Amphetamine antibody; 1.7 μg/ml (1.1 × 10^-5 M)): 26%

CC(N)C(O)c1ccccc1 (centres unmarked) [phenylpropanolamine]
mobilization with urine of individuals who indicated taking cross reacting substances (Amphetamine antibody): greater than 14% | % Mobilization (antibody (cocaine assay); 10 μg/ml): 26%
